For data set [1] the following is noted: pH 7.4.
The nature of data set [2]: UV-vis titration of 100 with NaSH, absorbance of products. The format is physicochemical. Further details: ε413: unit not given here. The settings on record: PIPES buffer pH 7.4.
The nature of data set [3]: pH titration of compound 42 monitored by UV-vis. The data set is classed as physicochemical. The settings on record: aqueous 100 mM KCl / 10 mM KOH solution titrated with HCl; absorbance at 534 nm as a function of pH; read-out: apparent pKa of the thiol. As for the experimental part: A 15 mL solution of compound 42 (111 μM) in 100 mM KCl and 10 mM KOH Millipore water was prepared. The pH of the solution was adjusted with 10 M, 5 M, 1 M, 50 mM, or 1 mM solutions of HCl and the pH recorded. At each pH value, an aliquot of the solution was transferred to a cuvette and the UV-vis spectrum was measured. After measurement, the aliquot was returned to the stock solution and the pH was adjusted to the next point in the titration.

The nature of data set [4]: Colorimetric selectivity studies, H2S versus amino acids and RSONS.
Data set [5] is described as follows: Air sensitivity of the chemiluminescent compound precursors. The format is physicochemical.
Data set [6] in a line: Chemiluminescence selectivity for H2S over reactive sulfur, oxygen, and nitrogen species (RSONS). The conditions noted are these: for turn on for H2S: chemiluminescence, H2S versus blank. How it is done:
(§1) In a septum-sealed cuvette, a solution of the compound (50 μM) and the desired reactive species was incubated in PIPES buffer (50 mM PIPES, 100 mM KCl, pH 7.4) for 60 minutes at 37.0° C. After incubation, 40 μL of 6 M NaOH was added to increase the pH to an optimal level for luminol chemiluminescence. After pH adjustment, 10 μL of 10 U/mL Horseradish Peroxidase (HRP) with 0.2 μM p-iodophenol was added. A background reading was acquired for 60 seconds, after which 50 μL of H2O2 (35%) was added. The sample luminosity at 425 nm was integrated for 300 s after H2O2 addition. The data reported are the average of at least three independent experiments.
The response of chemiluminescent compound precursor 200 and chemiluminescent compound precursor 202 to biologically-relevant reactive sulfur, oxygen, and nitrogen species (RSONS) was also determined. The selectivity of chemiluminescent compound precursor 200 for H2S was determined by adding 33 equivalents of cysteine (Cys), homocysteine (Hcy), N-acetylcysteine (NAC), reduced glutathione (GSH), thiosulfate (S2O3^2−), sulfate (SO4^2−), nitric oxide (NO), nitroxyl (HNO), and nitrite (NO2^−) (FIGS. 10 and 11). […]

Data set [7] in a line: Chemiluminescent H2S detection limit (HRP/H2O2/p-iodophenol). The settings on record: for chemiluminescent response after H2S-mediated reduction: followed by treatment with HRP and H2O2; for chemiluminescence in the absence of H2S: treatment with HRP and H2O2, by comparison to luminol or isoluminol. As for the experimental part:
as §1
In this particular embodiment, the use of a compound for a chemiluminescent testing method is disclosed.
Following the H2S-derived chemiluminescent response of both chemiluminescent compound precursor 200 and chemiluminescent compound precursor 202, the detection limit of each chemiluminescent compound precursor for H2S was determined. After incubating each chemiluminescent compound precursor for 1 hour for different H2S concentrations, the chemiluminescent response was measured after treatment with H2O2/HRP using p-iodophenol as an enhancer. […] Based on the concentration-dependent H2S response and the instrumental background measurements, the H2S detection limit (3σ) of chemiluminescent compound precursor 200 and chemiluminescent compound precursor 202 was determined to be 0.7±0.3 μM and 4.6±2.0 μM, respectively. Although the total brightness of chemiluminescent compound precursor 202 was lower than that of compound 200, both these detection limits were below the reported range of H2S concentrations (20 μM-100 μM) found in mammalian blood.

Data set [8] in a line: 1H NMR titration, 1:1 binding model, TBA-Ser. The conditions noted are these: 10.0 mM probe, 0-200 mM amino acid, DMSO-d6, 25.0° C., average of three titrations. As for the experimental part:
(§2) A septum-sealed NMR tube was charged with either chemiluminescent compound precursor 200 or 202 (10 mM in 300 μL of DMSO-d6) and aliquots of a DMSO-d6 solution containing 200 mM amino acid mixed with 10 mM of the compound were added using a syringe. The chemical shifts of the aromatic proton resonances were tracked and the data were fitted to a 1:1 binding model.
In addition to computational evidence for the hydrogen-bonding hypothesis, NMR titrations of chemiluminescent compound precursors 200 and 202 were also performed with different amino acids to further validate the model with solution data. Serine was used as a model amino acid because cysteine quickly reduces chemiluminescent compound precursor 200 under typical experimental conditions. […] Similarly, to model the protonation state of the amino acids in water, and also to ensure complete solubility through the course of the titration, the tetrabutylammonium salts of each amino acid were prepared. By titrating tetrabutylammonium serine (TBA-Ser) into independent solutions of chemiluminescent compound precursors 200 and 202, striking changes in the aromatic region of the NMR spectra were observed, consistent with amino acid binding to the hydrazide moiety (FIGS. 34A-34C). […]

The nature of data set [9]: 1H NMR titration, 1:1 binding model, TBA-Val. The settings on record: 10.0 mM probe, 0-200 mM amino acid, DMSO-d6, 25.0° C., average of three titrations. How it is done: as §2
^1H NMR titrations with tetrabutylammonium valine (TBA-Val) were also performed as a second model system in which the side chain of the amino acid cannot hydrogen bond to the azide. […] The binding affinities measured for TBA-Val are larger than for TBA-Ser (Table 9), which is consistent with the reduced internal competition for intramolecular hydrogen bonding sites in valine. Based on these titration data, and the lower hydrogen bonding ability of thiols by comparison to alcohols, binding affinity of cysteine for chemiluminescent compound precursor 200 and 202 was expected to be between the measured values for serine and valine. Under the general experimental conditions used to measure the selectivity date, a 10^3-10^4 M^−1 binding affinity between Cys/chemiluminescent compound precursor 200 would result in significant generation of the Cys/chemiluminescent compound precursor 200 adduct, which is consistent with the observed erosion in selectivity. […]

Data set [10] addresses cystathionine γ-lyase (CSE) (Homo sapiens, UniProt P32929). Kind of data set: Detection of enzymatically produced H2S from isolated CSE. The format is biochemical. As for the experimental part:
(§3) In a septum sealed cuvette, the desired reactive species were incubated in PIPES buffer (50 mM PIPES, 100 mM KCl, pH 7.4) at 37.0° C. for 48 hours. After initial incubation, 15 μL of 10 mM chemiluminescent compound precursor 202 in DMSO was added, and allowed to react for 60 min. After incubation, 40 μL of 6 M NaOH was added to increase the pH to an optimal level for luminol chemiluminescence. After pH adjustment, 10 μL of 10 U/mL Horse-radish Peroxidase (HRP) with 0.2 μM p-iodophenol was added. A background reading was acquired for 60 s, after which 50 μL of H2O2 (35%) was added. The sample luminosity at 425 nm was integrated for 40 s after H2O2 addition. The data reported are the average of at least three independent experiments.
CSE is a PLP-dependent enzyme that converts Hcy or Cys to H2S and can be inhibited by β-cyano-L-alanine (BCA).

The test system of the next data set is C6 cells. Nature of the data set: Detection of endogenously produced H2S in C6 cell lysates. The data set is classed as cell-based. As for the experimental part: as §3
C6 cells were obtained from ATCC and cultured in Dulbecco's Modified Eagle Medium (DMEM, Cellgro, MediaTek, Inc.) supplemented with 10% fetal bovine serum (FBS, HyClone), and 1% penicillin/streptomycin. Cells were passed and plated into T-75 flasks containing 10 mL of DMEM, and incubated at 37° C. with 5% CO2. For luminescence studies, the cells were washed with 1× phosphate buffered saline (PBS), trypsinized with 5 mL of Trypsin, and then centrifuged to form a cell pellet. The cell pellet was resuspended in 5 mL of 1×PBS and the cells were counted using a Bio RAD TC20 automated cell counter. Cells were centrifuged at 1,000 RPM for 5 minutes at room temperature, placed on ice and lysed using 100 μL of RIPA buffer (pH 7.5 10 mM Tris-HCl, 150 mM NaCl, 1.0% Nonidet P-40, 0.1% SDS, 0.1% sodium deoxycholate) containing protease inhibitor (PhosSTOP, Roche) for every 2×10^6 cells in the pellet. Luminescence measurements on cell lysates were made using 100 μL of lysate solution (2×10^6 cells per experiment) under ambient atmosphere by following the general procedure for enzymatically produced H2S outlined above.
The ability of chemiluminescent compound precursor 202 to detect and quantify endogenously-produced H2S in C6 cells was determined.

Where [11] appears, read: 30 equivalents of H2S then added, 45 min.
[12] abbreviates: Reactant 2-mercaptoethanol (2-ME).
The mark [13] stands for this setting: Reactant H2S, 33 equivalents, 50 μM compound, 60 min, 37.0° C., pH 7.4.

As usually defined, the pKa is the negative logarithm of the acid dissociation constant.

Chain of cystathionine γ-lyase (CSE) (P32929 whole entry, species assumed): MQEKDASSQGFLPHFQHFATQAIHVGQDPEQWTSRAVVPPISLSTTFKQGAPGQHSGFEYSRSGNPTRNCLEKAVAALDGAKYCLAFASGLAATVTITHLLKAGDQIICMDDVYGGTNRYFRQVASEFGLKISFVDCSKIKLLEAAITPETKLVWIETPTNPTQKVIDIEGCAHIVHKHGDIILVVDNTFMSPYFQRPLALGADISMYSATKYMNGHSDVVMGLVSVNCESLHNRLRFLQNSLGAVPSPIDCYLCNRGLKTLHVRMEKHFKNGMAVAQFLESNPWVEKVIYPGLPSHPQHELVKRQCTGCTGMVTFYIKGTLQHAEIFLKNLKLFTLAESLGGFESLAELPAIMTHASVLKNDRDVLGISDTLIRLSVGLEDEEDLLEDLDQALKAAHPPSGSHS

As to `Cc1cc(=O)oc2cc(N=[N+]=[N-])ccc12` [C-7Az, 7-azido-4-methylcoumarin], the “photostability under continuous exposure” value in data set [1] is “probe photoactivation”.

On to `O=[N+]([O-])c1ccc(Sc2ccc([N+](=O)[O-])c3nonc23)c2nonc12` [compound 40, bis(7-Nitrobenzo[c][1,2,5]oxadiazol-4-yl)sulfane], for which, in data set [2] (absorbance at 413 nm), the ε413 was 11,700±100.

For `O=[N+]([O-])c1ccc(S)c2nonc12` [compound 42, 7-Nitrobenzo[c][1,2,5]oxadiazole-4-thiol], the ε534 in data set [2] (λmax 534 nm) was 19,000±600 M^−1 cm^−1. Further, the pKa in data set [3] was found to be 2.6.

Turning to `O=[N+]([O-])c1ccc(Sc2ccc([N+](=O)[O-])c3nonc23)cc1` [compound 116, 4-Nitro-7-(4-nitrophenylthio)benzo[c][1,2,5]oxadiazole], the “absorbance peak at 534 nm after initial incubation” value in data set [4] (3 μM compound, 10 equivalents of H2S, glycine, serine, tyrosine, lysine, glutathione, N-acetyl-L-cysteine) is reported as “only the H2S samples showed the characteristic absorbance peak at 534 nm”. Also, in data set [4] (setting [11]), the “H2S response after incubation of GSH and N-acetylcysteine” value is given as “somewhat eroded”; the “colorimetric response to H2S after incubation with biological nucleophiles” value is “robust colorimetric response to H2S”.

Consider `[N-]=[N+]=Nc1cccc2c(=O)[nH][nH]c(=O)c12` [compound 200, 3-Azidophthalhydrazide], for which, in data set [5], the air sensitivity entry is recorded as “not air-sensitive”. The “Normalized Luminescence (CL/CL0)” value in data set [6] (setting [12]) is 6.6 ± 3.2; in [6] (Reactant Cys), 81 ± 5; in [6] (Reactant GSH), 94 ± 12; in [6] (setting [13]), 128 ± 16; in data set [6] (Reactant HNO) it was 9.1 ± 0.2; in data set [6] (Reactant Hcy), 57 ± 3. Moreover, the “Normalized Luminescence (CL/CL0)” value in [6] (Reactant NAC) is reported as 37 ± 19; in [6] (Reactant NO2), 0.9 ± 0.2; in data set [6] (Reactant ONOO^−), 0.6 ± 0.2; in [6] (Reactant S2O^2−), 5.9 ± 1.1; in data set [6] (Reactant SNAP (NO)), 0.05 ± 0.01; in data set [6] (Reactant SO4^2−), 0.8 ± 0.3. The “turn on for H2S” value in [6] was found to be 128 fold. In [7], the “chemiluminescent response after H2S-mediated reduction” value is “robust chemiluminescent response”. Besides, the “chemiluminescence in the absence of H2S” value in data set [7] was “negligible chemiluminescence”. Further, the results for the “Binding Affinities” value in data set [8] and in data set [9] were 380 ± 80 M⁻¹ and 3640 ± 270 M⁻¹, respectively.

As to `[N-]=[N+]=Nc1ccc2c(=O)[nH][nH]c(=O)c2c1` [compound 202, 4-Azidophthalhydrazide], the “chemiluminescent response with CSE in the absence of substrate” value in data set [10] is on record as “no response”. Also, in data set [10] (by comparison to CSE alone (p<0.001) or CSE and Hcy inhibited with BCA (p<0.005)), the “chemiluminescent response with CSE and Hcy substrate” value is “robust response”. For the same molecule, the “chemiluminescent response to Hcy, BCA, pyruvate (Pyr) and NH3” value in [10] (control experiments without CSE, p<0.005) is on record as “negligible”. Further, the air sensitivity entry in [5] is “not air-sensitive”. The “Normalized Luminescence (CL/CL0)” value in data set [6] (setting [12]) is 1.7 ± 0.08; in [6] (Reactant Cys), 1.5 ± 0.03; in [6] (Reactant GSH) it was 3.7 ± 0.9; in data set [6] (setting [13]), 45 ± 3; in data set [6] (Reactant HNO) it was 3.3 ± 0.2; in [6] (Reactant Hcy), 3.3 ± 0.5. The “Normalized Luminescence (CL/CL0)” value in data set [6] (Reactant NAC) is recorded as 3.3 ± 0.4; in [6] (Reactant NO2), 3.2 ± 0.6; in [6] (Reactant ONOO^−), 4.0 ± 0.2; in data set [6] (Reactant S2O^2−), 2.2 ± 0.6; in data set [6] (Reactant SNAP (NO)) it was 1.5 ± 0.5; in data set [6] (Reactant SO4^2−), 1.5 ± 0.3. Besides, the “Normalized Luminescence (CL/CL0)” value in [6] (Reactant Toluenethiol (TolSH)) is reported as 1.9 ± 0.4. Moreover, the “turn on for H2S” value in data set [6] is recorded as 45 fold. Besides, in data set [7], the “chemiluminescent response after H2S-mediated reduction” value is listed as “robust chemiluminescent response”. The “chemiluminescence in the absence of H2S” value in data set [7] is “negligible chemiluminescence”. The “Binding Affinities” value worked out at 260 ± 60 M⁻¹ in data set [8] and 3780 ± 370 M⁻¹ in [9]. Besides, the “luminescent response in C6 cell lysates lacking CSE substrates” value in the data set with C6 cells is reported as “minimal luminescent response”. In the data set on C6 cells (p<0.001 by comparison to lysates lacking substrate), the “luminescence in C6 cell lysates with Hcy as CSE substrate” value is “significantly increased luminescence”. The “luminescent response in C6 cell lysates with Hcy and BCA” value in the data set with C6 cells (p<0.005) was “abrogated the luminescent response”.

For the origin of these results see US9664696B1, “Compounds for determining the presence of hydrogen sulfide and methods of use” (University of Oregon, priority 2013, dated 2017).
